From patent US20010025105A1, “Certain substituted 1-aryl-3-piperazine-1'-yl propanones” (Molecular Geriatarics Corporation, priority 1997, published 2001)
Counter-ions that a name gives are not always drawn. Like-named read-outs stand apart in the source and are kept apart here.

What was measured:
[1] = system: microtubule cytoskeleton of human CG neuroblastoma cells; assay: Antimicrotubule activity, tubulin immunofluorescence microscopy; type: cell-based; details: 2 hr at 37° C., read-out: Concentration where microtubule destabilization occurs
Experimental: The compounds of the invention according to formula I are effective in destabilizing microtubules, thus are useful in treating certain neoplastic diseases. Indirect immunofluorescence microscopy using the monoclonal antibodies to tubulin is used herein to determine the activity of the compounds of this invention in promoting depolymerization of the microtubule cytoskeleton in cultured cells. The following assay was employed.
Cultured human CG neuroblastoma cells were seeded 1:3 from confluent cultures onto sterile 11×22 mm coverslips in 6 well tissue culture plates 16 hr prior to treatment. The following day, the tissue culture medium is removed and the cells are exposed to various concentrations of compounds of this invention in Krebs Ringer Hepes (KRH) buffer containing a final concentration of 0.5% DMSO as carrier. Incubations were performed at 37° C. in a humidified 5% CO2 atmosphere for 2 hr. After incubation, the cells were fixed in 3% TEM grade formaldehyde in PBS for 45 min at room temperature.
To visualize the effects of the compounds of the invention on the microtubule cytoskeleton, the cells were processed for tubulin immunofluorescence. Briefly, the cells were permeabilized in 0.5% Triton-X 100 in PBS for 5 min. The cells were washed 2× with PBS and aldehydes reduced using 0.5 mg/ml NaBH4 in PBS for 5 min. Subsequently, the cells were blocked for 10 min in 1.5% BSA and 1.5% nonfat dry milk in PBS (blocking solution, BS) for 10 min. The cells were then incubated for 30 min at 37° C. with the monoclonal antibody Tu27B which recognizes b-tubulin (dilution 1:20 in BS). Subsequently, the cells were washed 2× in PBS and once in BS. The cells were then incubated for 30 min at 37° C. with sheep antimouse IgG conjugated to FITC. After incubation, the cells were washed 2× in PBS and once in BS and incubated for 30 min at 37° C. with rabbit antisheep IgG conjugated to FITC. The cells were rinsed in PBS, counterstained with Hoechst 33285 in PBS (1 μg/ml), and rinsed in PBS. The coverslips were mounted in 9:1 glycerol:PBS containing 1 mg/ml p-phenylenediamine and sealed with nail polish.
The cells were viewed using a Jenalumar epifluorescence microscope equipped with the proper filters for Fluorescein Isothiocyanate (FITC) excitation and emission. Lack of effect of a compound is evidenced by the presence of an intact microtubule network in interphase cells, or a mitotic spindle in dividing cells. Antineoplastic compounds of the invention at effective doses result in the disappearance of microtubules in both interphase and mitotic cells.

Candida albicans SRI 523 = assay: Agar disc diffusion assay; type: cell-based; details: 240 ug/disc, about 24 hr at 37° C.; for zone of inhibition at 240 µg/disc: Candida albicans, SRI523, read-out: Diameter of the zone of inhibition, C. albicans
Experimental: (§1) The activity of the compounds is determined using the following assay. The compound is dissolved in DMSO at a concentration of 6 mg/ml and then diluted with water to a final concentration of 3 mg/ml in 50% DMSO (% DMSO was shown not to be inhibitory to the test organisms). An aliquot (0.08 ml) of each drug solution was transferred to filter paper discs (12.7 mm diameter, Scmeicherand Schuell) for use in the agar diffusion assay. The concentration of each drug on the filter paper disc was 240 ug/disc. The test organisms included the following: Gram-positive aerobes (Staphylococcus aureus SRI 1323, Streptococcus pneumoniae SRI 1167); Gram-negative aerobe (Proteus vulgaris SRI 180); and the yeast Candida albicans SRI 523. An agar disc diffusion assay was used to evaluate the antimicrobial activity of the test compounds. Briefly, cultures were prepared from 16-20 hr agar slant cultures by inoculating in physiological saline to a turbidity equivalent to a #0.5 McFarland turbidity standard for the bacteria and a #3 McFarland standard for C. albicans. The surface of Mueller-Hinton agar (15×100 mm plates, mm) were evenly inoculated with each standardized culture using a cotton swab. Filter paper discs containing the drug concentration listed above were then placed on the inoculated agar plates along with a disc containing the solvent used to dissolve each drug. The plates were incubated at 37° C. for about 24 hr and the diameters of the zones of inhibition measured with a vernier caliper. Positive control drugs consisted of streptomycin for use with the bacterial strains and 5-fluorocytosine for use with C. albicans. The positive control drugs were assayed as described above for the compounds of the present invention using the same concentration.

Proteus vulgaris SRI 180 = assay: Agar disc diffusion assay; type: cell-based; details: 240 ug/disc, about 24 hr at 37° C., 0 = no measurable zone; for zone of inhibition at 240 µg/disc: Proteus vulgaris, SRI180, read-out: Diameter of the zone of inhibition, P. vulgaris
Experimental: as §1

[2] = system: Staphylococcus aureus SRI 1323; assay: Agar disc diffusion assay; type: cell-based; details: 240 ug/disc, about 24 hr at 37° C.; for zone of inhibition at 240 µg/disc: Staphylococcus aureus, SRI1323, read-out: Diameter of the zone of inhibition, S. aureus
Experimental: as §1

[3] = system: Streptococcus pneumoniae SRI 1167; assay: Agar disc diffusion assay; type: cell-based; details: 240 ug/disc, about 24 hr at 37° C., + = zone too large to measure; for zone of inhibition at 240 µg/disc: Streptococcus pneumoniae, SRI1167, read-out: Diameter of the zone of inhibition, S. pneumoniae
Experimental: as §1

[4] = system: TG3 immunoreactivity in OKA treated MSN1a cells; assay: MSN1a cell culture model, ELISA with TG3 antibody, okadaic acid treated cells; type: cell-based, human; details: 1 μM OKA, 2 hrs at 37° C., read-out: IC50 for inhibition of TG3 immunoreactivity in OKA treated MSN1a cells
Summary of the method: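 Human MSN1a neuroblastoma cells (2×10^4/well) in KRH pH 7.4 were exposed 2 h at 37 °C to 1 μM okadaic acid plus 0–64 μM compound (0.26% DMSO final). Lysates were coated onto ELISA plates and probed with TG3 and an alkaline phosphatase secondary. Absorbance was read at 405 nm with p-nitrophenyl phosphate substrate.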

[5] = system: paired helical filament epitopes in MSN1a cells; assay: Western blot of PHF-1 immunoreactivity in lysates of MSN1a cells; type: cell-based, human; details: 100 μM chlorpromazine, 2 hours at 37° C.
Experimental: These compounds are effective at micromolar concentrations, with increased potency being evident when cells are treated prior to the addition of okadaic acid. The effective concentrations appear to be in the range at which these drugs are present in the brain following chronic treatment of psychiatric patients (Svendsen, C N, Psychopharnacology, 90, 316-321, 1986). […] The cells were isolated by centrifugation, boiled for 10 minutes and […] protein from the resulting heat stable supernatants were loaded per lane on an SDS-PAGE gel. The gel was electrophoretically transferred to nitrocellulose membrane and then immnunostained with PHF-1. […] The use of the MSN1a cell culture model for screening of novel compounds for therapeutic activity in AD is, therefore, quite warranted.

[6] = system: PHF epitopes in human brain tissue; assay: Retrospective study of autopsy brain tissue of chronically treated patients, direct ELISA using TG3 antibody; type: in vivo; details: N 51, sum of absorbance readings for 8 dilutions
Excerpt: In a subsequent study, 51 additional patients were identified and the analysis was repeated as above using the TG3 antibody in an ELISA format.

[7] = system: PHF epitope levels in human brain tissue; assay: Retrospective study of autopsy brain tissue of chronically treated patients, ALZ-EIA method; type: in vivo; details: frontal (Broadman area 10) and temporal (Broadman area 38) regions, FIGS. 4A and 4B
Experimental: Frontal and cortical brain tissue specimens obtained at autopsy from patients chronically treated with chlorpromazine were analyzed using the ALZ-EIA method previously described (Ghanbari, H A, et al, JAMA, 263, 2907, 1990). […] The brain tissue (post-mortem) from approximately the same number of (age matched) normal controls and Alzheimer's Disease patients were also analyzed and are presented in these figures as negative and positive controls (for normal and AD, respectively). […] Bick, K L. Raven Press, New York, 1994).

| SMILES | Diameter of the zone of inhibition, C. albicans (Candida albicans SRI 523) [mm] | Diameter of the zone of inhibition, P. vulgaris (Proteus vulgaris SRI 180) [mm] | Diameter of the zone of inhibition, S. aureus [2] [mm] | Diameter of the zone of inhibition, S. pneumoniae [3] [mm] | zone of inhibition at 240 µg/disc (Candida albicans SRI 523) [mm] | zone of inhibition at 240 µg/disc (Proteus vulgaris SRI 180) [mm] | zone of inhibition at 240 µg/disc [2] [mm] | zone of inhibition at 240 µg/disc [3] [mm] | other results |
| --- | --- | --- | --- | --- | --- | --- | --- | --- | --- |
| Cl.Cl.O=C(CCN1CCN(Cc2ccccc2)CC1)c1ccc([N+](=O)[O-])cc1 [Example 5] | 17.6 | 17.3 | 22.8 | 29.9 |  |  |  |  | minimal effective concentration [1]: 4 µM |
| Cl.O=C(CCN1CCN(C(=O)c2ccccc2C(F)(F)F)CC1)c1ccccc1F [Example 43] | 22.5 | 15.9 | 17.7 | 25.3 |  |  |  |  |  |
| Cl.Cl.O=C(CCN1CCN(C(c2ccccc2)c2ccc(Cl)cc2)CC1)c1ccc(Br)s1 (stereo not shown) [Example 78, 1(5″-Bromo-2″-thienyl)-3-[4′-(1′″-p-chlorophenyl-1′″-phenylmethyl)-1′-piperazinyl]-1-propanone dihydrochloride] | 15.2 | 14.5 | 16.2 | 19.7 |  |  |  |  |  |
| O=C(CCN1CCN(Cc2ccccc2)CC1)c1nccs1 [Example 76, 1-(2-Thiazolyl)-3-(4′-benzyl-1′-piperazinyl)-1-propanone dihydrochloride] |  |  |  |  | 20.9 | 20.5 | 19.3 | 35.5 | IC50 ([4]; Homo sapiens): 10.5 µM |
| O=C(CCN1CCN(C(=O)c2sc3ccccc3c2Cl)CC1)c1ccc(Br)s1 [Example 86, 1-(5″-Bromo-2″-thienyl)-3-[4′-(3′″-chlorobenzo[b]-2′″-thienoyl)-1′-piperazinyl]-1-propanone dihydrochloride] |  |  |  |  | 17.3 | 13.9 | 16.2 | 19.3 |  |
| Cl.Cl.O=C(CCN1CCN(Cc2ccccc2)CC1)c1ccc(F)c(Br)c1 [Example 25, 1-(p-Fluoro-m-bromophenyl)-3-(4′-benzyl-1′-piperazinyl)-1-propanone dihydrochloride] | 26.0 | 16.0 | 27.5 | 36.3 |  |  |  |  |  |
| Cl.Cl.O=C(CCN1CCN(Cc2ccccc2)CC1)c1csc([N+](=O)[O-])c1 [Example 80, 1-(5″-Nitro-3″-thienyl)-3-(4′-benzyl-1′-piperazinyl)-1-propanone dihydrochloride] | 14.5 | 13.8 | 17.2 |  |  |  |  |  | IC50 [4]: 5.7 µM |
| CN(C)CCCN1c2ccccc2Sc2ccc(Cl)cc21 [Chlorpromazine, chlorpromazine] |  |  |  |  |  |  |  |  | IC50 ([4]; Homo sapiens): ~70 µM; production of paired helical filament epitopes (PHF-1 immunoreactivity, western blot) ([5]; FIG. 3): markedly inhibit the expression of PHF epitopes; production of paired helical filament epitopes (PHF-1 immunoreactivity, western blot) ([5]; FIG. 3, listed as CPZ): greatly decreased the production of paired helical filament epitopes; SIGNAL ± SEM Frontal ([6]; post-mortem frontal brain tissue): 0.12 ± 0.11; SIGNAL ± SEM Temporal ([6]; post-mortem temporal brain tissue): 0.16 ± 0.11; PHF epitope levels (ALZ-EIA) [7]: low PHF epitope levels similar to normal controls |
| [H]/N=C(/N)N[C@H]1[C@H](O)[C@@H](O)[C@H](O[C@@H]2O[C@@H](C)[C@](O)(C=O)[C@H]2O[C@@H]2O[C@@H](CO)[C@H](O)[C@@H](O)[C@@H]2NC)[C@@H](N/C(N)=N\[H])[C@@H]1O [streptomycin, reference compound] |  |  |  |  |  | 37.6 | 28.4 | 39.8 |  |
| Nc1nc(=O)[nH]cc1F [5-fluorocytosine, reference compound] |  |  |  |  | 33.5 |  |  |  |  |
